Series [1] can be described thus: Pharmacokinetics of ginsenosides after single oral RGE with or without amoxicillin treatment. In kind it is in vivo, mice. The conditions noted are these: single oral RGE 2 g/kg; for AUC: AUC 0 to 48 h. As for the experimental part:
Male ICR mice (7-weeks-year-old, 30–35 g) were purchased from Samtako Co. (Osan, Kyunggi-do, Korea). Animals were acclimatized for 1 week in an animal facility at Kyungpook National University. Food and water were available ad libitum.
Before blood sampling, mice were anesthetized using isoflurane (isoflurane vaporizer to 2% with oxygen flow at 0.8 L/min) for 5 min.

In series [2] the test system is lactic acid bacteria (LAB). The experiment in a line: Incubation of single ginsenoside with LAB (formation rate of metabolite ginsenoside). In kind it is in vitro ADME. The following applies: 7 days, 37 °C, MRS broth. Here is the method:
To compare the involvement of LAB on individual ginsenoside, an aliquot (10 μL) of each ginsenoside stock solution (10 mM in methanol) was mixed with autoclaved MRS broth (550 mg/10 mL in distilled water) and added 2 g of LAB (contained 1 billion CFU). Then, the mixture was incubated for 7 days in a shaking incubator at 37 °C and 300 rpm. For the analysis of ginsenosides, 0.2 mL aliquot of incubation mixture was collected every 24 h for 7 days. The incubation medium was diluted 100-fold with distilled water and stored at −80 °C. For the ginsenoside analysis, 200 μL of an IS solution (0.05 ng/mL berberine in methanol) was added to 30 μL of 100-fold diluted samples.

On the set-up of series [3]: method as in PMID 32023909. The following applies: cited from earlier work.
For series [4], the system named is lactic acid bacteria (LAB). The experiment in a line: In vitro RGE fermentation with LAB. The following applies: 7 days incubation.
Series [5] can be described thus: Recovery of ginsenosides from urine and feces for 48 h after RGE, amoxicillin vs control. The following applies: for Ginsenosides identified in urine: urine 48 h after single oral RGE 2 g/kg; for Fecal recovery, change by the amoxicillin treatment: feces 48 h after single oral RGE 2 g/kg, vs control.
The nature of series [6]: Recovery of ginsenosides from urine and feces for 48 h after RGE, amoxicillin with or without LAB. The following applies: for Fecal recovery, change by LAB treatment: feces 48 h after single oral RGE 2 g/kg, Amoxicillin + LAB vs amoxicillin.
Procedure: (§1) Mice received amoxicillin (n = 12, 20 mg/kg, dissolved in water at 2 mL/kg, twice daily) for 3 days via oral gavage. From the 4th day, mice from the LAB + amoxicillin treatment group received LAB (2 g/kg suspended in water at 2 mL/kg, once daily) for 7 days via oral gavage. Mice from the amoxicillin treatment group received water (2 mL/kg, once daily) for 7 days via oral gavage.
A short description of series [7]: Pharmacokinetics of ginsenosides after single oral RGE after amoxicillin with or without repeated LAB treatment. The following applies: single oral RGE 2 g/kg; for AUC: AUC 0 to 48 h.
Procedure: as §1
Blood sampling was performed using a sparse sampling method via the right or left retro-orbital vein under isoflurane anesthesia at 0, 2, 4, and 8 h after the RGE administration through the heparinized capillary tube. […] After centrifugation of the blood samples at 10,000× g for 1 min, 30 μL aliquots of plasma were stored at −80 °C until the analysis of the ginsenosides. Subsequent protocols were identical to the amoxicillin treated group.
Pharmacokinetic parameters were calculated using WinNonlin (version 5.1, Pharsight, Mountain View, CA, USA) by a non-compartmental analysis.
Setting [8] is: Amoxicillin 3 days pretreatment.
Where [9] appears, read: Amoxicillin 3 days then water 7 days.

For `CC(C)=CCC[C@](C)(O[C@@H]1O[C@H](CO)[C@@H](O)[C@H](O)[C@H]1O)[C@H]1CC[C@]2(C)[C@@H]1[C@H](O)C[C@@H]1[C@@]3(C)CC[C@H](O[C@@H]4O[C@H](CO)[C@@H](O)[C@H](O)[C@H]4O[C@@H]4O[C@H](CO)[C@@H](O)[C@H](O)[C@H]4O)C(C)(C)[C@@H]3CC[C@]12C` [GRd], the Cmax in series [1] (setting [8]) amounted to 3.2 ± 1.6 ng/mL; in series [1] (Control, plasma), 8.6 ± 1.8 ng/mL; in series [7] (setting [9]), 6.5 ± 5.1 ng/mL; in series [7] (Amoxicillin + LAB), 18.4 ± 6.9 ng/mL. For the same molecule, the Half-Life in series [1] (setting [8]) is listed as 29.1 ± 8.6 h; in series [1] (Control, plasma), 24.2 ± 3.1 h; in series [7] (setting [9]) it was 29.2 ± 2.7 h; in series [7] (Amoxicillin + LAB) it was 25.5 ± 3.8 h. Besides, the MRT in series [1] (setting [8]) was found to be 24.0 ± 2.1 h; in series [1] (Control, plasma), 21.3 ± 3.0 h; in series [7] (setting [9]), 24.1 ± 3.9 h; in series [7] (Amoxicillin + LAB) it was 20.6 ± 3.7 h. The Tmax in series [1] (setting [8]) is on record as 24.7 ± 23.0 h; in series [1] (Control, plasma), 13.3 ± 9.2 h; in series [7] (setting [9]), 5.3 ± 2.3 h; in series [7] (Amoxicillin + LAB) it was 16.0 ± 9.2 h. Besides, the AUC in series [1] (setting [8]) worked out at 132.4 ± 77 ng·h/mL; in series [1] (Control, plasma, n = 3), 278.8 ± 117 ng·h/mL; in series [7] (setting [9]) it was 213.1 ± 151.3 ng·h/mL; in series [7] (Amoxicillin + LAB (LAB 2 g/kg once daily 7 days)), 618.1 ± 385.6 ng·h/mL. Further, the “Plasma concentrations, amoxicillin treatment compared to the control group” value in series [1] is on record as “decreased”. Besides, in series [2], the “Metabolite formation on incubation of single ginsenoside with LAB” value (shortened to “Metabolite formation on incubation”) is listed as “produced GRg3 with the highest formation rate”. For the same molecule, the “Ratio of liver AUC to plasma AUC” value in series [3] is under 0.2. In addition, the “Alteration of ginsenoside by fermentation of RGE with LAB” value (from here on “Alteration of ginsenoside”) in series [4] was “gradual decrease”. For the same molecule, in series [5], the “Ginsenosides identified in urine” value is listed as “identified in urine”. Also, the “Fecal recovery, change by LAB treatment” value in series [6] is given as “significantly decreased”. Moreover, in series [6] (urine 48 h after single oral RGE 2 g/kg), the “Urinary excretion, Amoxicillin + LAB compared with amoxicillin group” value was “increased”. Besides, in series [7], the “Detection in mouse plasma following repeated LAB administration in addition to amoxicillin” value is given as “detected”. Further, the “Plasma exposure / pharmacokinetic parameters, LAB treatment compared with amoxicillin group” value is given as “increased” in series [7] and “significantly increased” in series [7] (listed as Rd).

Take `CC(C)=CCC[C@](C)(O[C@@H]1O[C@H](CO[C@@H]2O[C@H](CO)[C@@H](O)[C@H](O)[C@H]2O)[C@@H](O)[C@H](O)[C@H]1O)[C@H]1CC[C@]2(C)[C@@H]1[C@H](O)C[C@@H]1[C@@]3(C)CC[C@H](O[C@@H]4O[C@H](CO)[C@@H](O)[C@H](O)[C@H]4O[C@@H]4O[C@H](CO)[C@@H](O)[C@H](O)[C@H]4O)C(C)(C)[C@@H]3CC[C@]12C` [GRb1, 20(S)-ginsenosides Rb1]: the AUC in series [1] (male, ICR, mouse, plasma, po, 2 g/kg, Amoxicillin 3 days pretreatment, read-out: AUC) turned out to be 926 ± 439 ng·h/mL; in series [1] (male, ICR, mouse, plasma, po, 2 g/kg, Control, plasma, n = 3, read-out: AUC), 896 ± 81.3 ng·h/mL; in series [7] (male, ICR, mouse, plasma, po, 2 g/kg, AUC, Amoxicillin 3 days then water 7 days) it was 752 ± 478 ng·h/mL; in series [7] (male, ICR, mouse, plasma, po, 2 g/kg, AUC, Amoxicillin + LAB (LAB 2 g/kg once daily 7 days)), 622 ± 164 ng·h/mL. The Cmax in series [1] (male, ICR, mouse, plasma, po, 2 g/kg, Amoxicillin 3 days pretreatment, read-out: Cmax) was 28.2 ± 12.9 ng/mL; in series [1] (male, ICR, mouse, plasma, po, 2 g/kg, Control, plasma, read-out: Cmax), 41.3 ± 14.3 ng/mL; in series [7] (male, ICR, mouse, plasma, po, 2 g/kg, Cmax, Amoxicillin 3 days then water 7 days), 23.7 ± 11.6 ng/mL; in series [7] (male, ICR, mouse, plasma, po, 2 g/kg, Cmax, Amoxicillin + LAB), 26.2 ± 4.6 ng/mL. Moreover, the Half-Life is 21.7 ± 3.6 h in series [1] (male, ICR, mouse, plasma, po, 2 g/kg, Amoxicillin 3 days pretreatment, read-out: Half-life (converted)); 25.9 ± 4.7 h in series [1] (male, ICR, mouse, plasma, po, 2 g/kg, Control, plasma, read-out: Half-Life (converted)); 20.1 ± 2.2 h in series [7] (male, ICR, mouse, plasma, po, 2 g/kg, Half-Life, Amoxicillin 3 days then water 7 days); 16.2 ± 0.9 h in series [7] (male, ICR, mouse, plasma, po, 2 g/kg, Half-life, Amoxicillin + LAB). For the same molecule, the MRT in series [1] (male, ICR, mouse, plasma, po, 2 g/kg, Amoxicillin 3 days pretreatment, read-out: MRT) turned out to be 19.3 ± 1.4 h; in series [1] (male, ICR, mouse, plasma, po, 2 g/kg, Control, plasma, read-out: MRT), 16.3 ± 2.7 h; in series [7] (male, ICR, mouse, plasma, po, 2 g/kg, MRT, Amoxicillin 3 days then water 7 days), 18.6 ± 1.6 h; in series [7] (male, ICR, mouse, plasma, po, 2 g/kg, MRT, Amoxicillin + LAB), 16.9 ± 1 h. Besides, the Tmax in series [1] (male, ICR, mouse, plasma, Amoxicillin 3 days pretreatment, read-out: Tmax) amounted to 8 h; in series [7] (male, ICR, mouse, plasma, po, 2 g/kg, Tmax, Amoxicillin 3 days then water 7 days) it was 3.3 ± 1.2 h; in series [7] (male, ICR, mouse, plasma, po, 2 g/kg, Tmax, Amoxicillin + LAB) it was 4.7 ± 3.1 h. Also, in series [1], the “Plasma concentrations, amoxicillin treatment compared to the control group” value was “not significantly affected”. In series [3], the “Ratio of liver AUC to plasma AUC” value is under 0.2. Further, in series [4], the “Alteration of ginsenoside” value is “most significant decrease”. For the same molecule, in series [5], the “Fecal recovery, change by the amoxicillin treatment” value is “increased”. For the same molecule, in series [5], the “Ginsenosides identified in urine” value is listed as “identified in urine”. Also, the “Fecal recovery, change by LAB treatment” value in series [6] is given as “significantly decreased”. The “Detection in mouse plasma following repeated LAB administration in addition to amoxicillin” value in series [7] is recorded as “detected”. Besides, the “Plasma exposure / pharmacokinetic parameters, LAB treatment compared with amoxicillin group” value in series [7] was “not different”.

Consider `CC(C)=CCC[C@](C)(O[C@@H]1O[C@H](CO)[C@@H](O)[C@H](O)[C@H]1O)[C@H]1CC[C@]2(C)[C@@H]1[C@H](O)C[C@@H]1[C@@]3(C)CC[C@H](O)C(C)(C)[C@@H]3[C@@H](O[C@@H]3O[C@H](CO)[C@@H](O)[C@H](O)[C@H]3O)C[C@]12C` [GRg1], for which the “Metabolite formation on incubation” value in series [2] was “produced GRh1”. For the same molecule, the “Alteration of ginsenoside” value in series [4] is recorded as “gradual decrease”. Also, in series [5], the “Fecal recovery, change by the amoxicillin treatment” value is “increased” and the “Ginsenosides identified in urine” value was “identified in urine”. The “Fecal recovery, change by LAB treatment” value in series [6] is given as “significantly decreased”.

Regarding `CC(C)=CCC[C@](C)(O)[C@H]1CC[C@]2(C)[C@@H]1[C@H](O)C[C@@H]1[C@@]3(C)CC[C@H](O)C(C)(C)[C@@H]3[C@@H](O[C@@H]3O[C@H](CO)[C@@H](O)[C@H](O)[C@H]3O[C@@H]3O[C@H](CO)[C@@H](O)[C@H](O)[C@H]3O)C[C@]12C` [GRf], the “Metabolite formation on incubation” value in series [2] is listed as “produced GRh1”. The “Alteration of ginsenoside” value in series [4] is “gradual decrease”. The “Fecal recovery, change by the amoxicillin treatment” value in series [5] is recorded as “increased”. Further, in series [6], the “Fecal recovery, change by LAB treatment” value is on record as “significantly decreased”.

As for `CC(C)=CCC[C@](C)(O[C@@H]1O[C@H](CO)[C@@H](O)[C@H](O)[C@H]1O)[C@H]1CC[C@]2(C)[C@@H]1[C@H](O)C[C@@H]1[C@@]3(C)CC[C@H](O[C@@H]4O[C@H](CO)[C@@H](O)[C@H](O)[C@H]4O)C(C)(C)[C@@H]3CC[C@]12C` [GF2], the “Metabolite formation on incubation” value in series [2] is “the highest among the ginsenoside formation rate”. Also, the “Alteration of ginsenoside” value in series [4] is “gradual decrease”. The “Fecal recovery, change by the amoxicillin treatment” value in series [5] is given as “significantly decreased”. The “Fecal recovery, change by LAB treatment” value in series [6] was “remained similar”. The “Plasma exposure / pharmacokinetic parameters, LAB treatment compared with amoxicillin group” value in series [7] was “increased”.

On to `CC(C)=CCC[C@](C)(O[C@@H]1O[C@H](CO)[C@@H](O)[C@H](O)[C@H]1O)[C@H]1CC[C@]2(C)[C@@H]1[C@H](O)C[C@@H]1[C@@]3(C)CC[C@H](O)C(C)(C)[C@@H]3[C@@H](O[C@@H]3O[C@H](CO)[C@@H](O)[C@H](O)[C@H]3O[C@@H]3O[C@@H](C)[C@H](O)[C@@H](O)[C@H]3O)C[C@]12C` [GRe], for which, in series [2], the “Metabolite formation on incubation” value is recorded as “produced GRh1”. Besides, the “Alteration of ginsenoside” value in series [4] is recorded as “most significant decrease”. In series [5], the “Fecal recovery, change by the amoxicillin treatment” value is recorded as “increased” and the “Ginsenosides identified in urine” value was “identified in urine”. In series [6], the “Fecal recovery, change by LAB treatment” value was “significantly decreased”.

A word on the Cmax: it is the maximum level reached in the sampled fluid or tissue. In general, MRT refers to a mean duration of stay, worked out from the concentration-time curve. As usually defined, the Tmax is the time at which the peak concentration occurs. The AUC is concentration integrated over time.
